Tests used:
Assay type in all cases: in vivo, human
[1] = system: type 2 diabetic patients; test: Fasting plasma glucose (Example 1); conditions: mITT population; for Fasting plasma glucose change from baseline to Week 24 (LOCF), LS Mean (SE): ANCOVA
Description: (§1) Criteria for Evaluation: • Efficacy: • Primary Endpoint: • Change in HbA1c from baseline to Week 24 • Secondary Endpoints: • Change in 2-hour PPG during meal test from baseline to Week 24 • Change in 2-hour plasma glucose excursion during meal test from baseline to Week 24 • Percentage of patients reaching HbA1c ≤6.5% or <7% at Week 24 • Change in 7-point SMPG profiles from baseline to Week 24 (each time point and mean daily value) • Change in body weight from baseline to Week 24, • Average daily Insulin glargine dose at Week 24 • Change in FPG from baseline to Week 24 • Percentage of patients requiring rescue therapy during the 24-week open-label treatment period • Change in 30-minute and 1-hour PPG and plasma glucose excursion during meal test from baseline to week 24 • Percentage of patients reaching HbA1c <7% at week 24 with no documented symptomatic hypoglycemia during the 24-week open label treatment period • Percentage of patients reaching HbA1c <7% with no weight gain at week 24
(§2) All continuous secondary efficacy endpoints were analyzed using a similar ANCOVA model with treatment, randomization strata of screening HbA1c (<8%, ≥8%), randomization strata of screening BMI (<30 kg/m^2, ≥30 kg/m^2) and country as fixed effects and using the baseline value of the corresponding parameter as a covariate. Insulin glargine dose was not included in the ANCOVA model as a covariate since patients enrolled were insulin-naïve.

[2] = Body weight (Example 1); conditions: for Body weight change from baseline to Week 24 (LOCF), LS Mean (SE): ANCOVA
Description: as §1, §2

[3] = system: type 2 diabetic patients; test: HbA1c, 24-week phase 2 study on top of metformin (Example 1); conditions: mITT population; for HbA1c change from baseline to Week 24 (LOCF), LS Mean (SE): ANCOVA
Description: A randomized, 24-week, open-label, 2-arm parallel-group, multicenter study comparing the efficacy and safety of insulin glargine/lixisenatide fixed ratio combination versus insulin glargine on top of metformin in type 2 diabetic patients.
Methodology: This was an open-label, 1:1 randomized, active-controlled, 2-arm, 24-week duration, parallel-group study comparing: • Insulin glargine/lixisenatide fixed ratio (2 U of insulin glargine for 1 μg of lixisenatide) combination • Insulin glargine alone
Diagnosis and criteria for inclusion: Patients with type 2 diabetes mellitus diagnosed for at least 1 year, treated with metformin at a stable dose of at least 1.5 g/day for at least 3 months prior to screening visit, and with HbA1c ≥7%, and ≤10% at screening.
In both groups, the initial daily dose of insulin glargine to be administered during the first week of treatment was 10 U. Afterwards, the dose was adjusted to achieve a target fasting SMPG in the range of 80 to 100 mg/dL (4.4 to 5.6 mmol/L). The dose was titrated weekly until the patient reached the target fasting SMPG. Thereafter, until the end of the study, the dose was adjusted as necessary to maintain a fasting SMPG between 80 and 100 mg/dL (4.4 and 5.6 mmol/1), inclusive. Doses could be reduced or modified at any time for hypoglycemia.
If a 60 U/30 μg dose was not sufficient to maintain FPG/HbA1c below predefined thresholds values, the dose was to be kept at 60 U and a rescue therapy was to be introduced.
as §1
The primary endpoint (change in HbA1c from baseline to week 24) was analyzed using an analysis of covariance (ANCOVA) model with treatment (insulin glargine/lixisenatide fixed ratio combination, insulin glargine alone), randomization strata of screening HbA1c (<8%, ≥8%), randomization strata of screening BMI (<30 kg/m^2, ≥30 kg/m^2) and country as fixed effects and using the baseline HbA1c value as a covariate.
The non-inferiority of insulin glargine/lixisenatide fixed ratio combination to insulin glargine alone was tested using a 1-sided statistical test with alpha level of 0.025 and a non-inferiority margin of 0.4% HbA1c. […] If non-inferiority is established, then a corresponding check of statistical superiority of insulin glargine/lixisenatide fixed ratio combination over insulin glargine alone would be performed for the primary endpoint.
All categorical secondary efficacy endpoints were analyzed by using Cochran-Mantel-Haenszel (CMH) method stratified by randomization strata of screening HbA1c (<8%, ≥8%) and BMI (<30 kg/m^2, ≥30 kg/m^2).

[4] = system: type 2 diabetic patients; test: 2-hour plasma glucose excursion during standardized meal test (Example 1); conditions: mITT population; for 2-hour plasma glucose excursion change from baseline to Week 24 (LOCF), LS Mean (SE): ANCOVA
Description: The diabetes type 2 patient may have a glucose excursion (in particular a 2-hour postprandial glucose excursion of at least 2 mmol/L, at least 3 mmol/L, at least 4 mmol/L, at least 5 mmol/L, at least 5.5 mmol/L, at least 6 mmol/L, at least 6.5 mmol/L, or at least 7 mmol/L at the onset of the treatment with the composition of the present invention. In the present invention, the glucose excursion is in particular the difference of the 2-hour postprandial plasma glucose concentration and the plasma glucose concentration 30 minutes prior to a meal test.
as §1, §2

[5] = system: type 2 diabetic patients; test: Symptomatic hypoglycemia (Example 1); conditions: Safety population
Description: Safety: Adverse events, serious adverse events, symptomatic hypoglycemia, vital signs, electrocardiogram (ECG), safety laboratory values.
Symptomatic hypoglycemia events were documented on a specific hypoglycemia event form, and not an AE CRF page, and thus were not included in the TEAE summaries.

Gly(A21)-Arg(B31)-Arg(B32)-human insulin [Insulin Glargine]
Fasting plasma glucose at Week 24 (LOCF), Mean (SD) [1]: 6.20 (1.35) mmol/L
Fasting plasma glucose at Week 24 (LOCF), Median [1]: 5.95 mmol/L
Fasting plasma glucose change from baseline to Week 24 (LOCF), Mean (SD) [1]: −3.28 (2.39) mmol/L
Fasting plasma glucose change from baseline to Week 24 (LOCF), Median [1]: -3.00 mmol/L
Fasting plasma glucose change from baseline to Week 24 (LOCF), LS Mean (SE) [1]: −3.51 (0.128) mmol/L
Fasting plasma glucose change from baseline to Week 24 (LOCF), LS Mean (SE) ([1]; listed as insulin glargine): -3.51 mmol/L
Body weight at Week 24 (LOCF), Mean (SD) ([2]; mITT population): 92.09 (16.30) kg
Body weight at Week 24 (LOCF), Median ([2]; mITT population): 91.00 kg
Body weight change from baseline to Week 24 (LOCF), Mean (SD) ([2]; mITT population): 0.39 (2.96) kg
Body weight change from baseline to Week 24 (LOCF), Median ([2]; mITT population): 0.35 kg
Body weight change from baseline to Week 24 (LOCF), LS Mean (SE) ([2]; mITT population): 0.48 (0.282) kg
Body weight change from baseline to Week 24 (LOCF), LS Mean (SE) ([2]; mITT population, listed as insulin glargine): +0.48 kg
LS mean body weight increase from baseline to week 24 ([2]; worded as increased by): 0.48 kg
HbA1c at Week 24 (LOCF), Mean (SD) [3]: 6.47 (0.64) %
HbA1c at Week 24 (LOCF), Median [3]: 6.40%
HbA1c change from baseline to Week 24 (LOCF), Mean (SD) [3]: −1.54 (0.87) %
HbA1c change from baseline to Week 24 (LOCF), Median [3]: −1.40%
Number (%) of patients with HbA1c <7.0% at Week 24 [3]: 126 (78.3%) n (%)
Number (%) of patients with HbA1c ≤6.5% at Week 24 [3]: 104 (64.6%) n (%)
Percentage of patients reaching HbA1c <7% at Week 24 [3]: 78.3%
Percentage of patients reaching HbA1c ≤6.5% at Week 24 [3]: 64.6%
HbA1c change from baseline to Week 24 (LOCF), LS Mean (SE) [3]: −1.64 (0.057) %
HbA1c change from baseline to Week 24 (LOCF), LS Mean (SE) ([3]; listed as insulin glargine): −1.64%
2-hour plasma glucose excursion at Week 24 (LOCF), Mean (SD) [4]: 5.33 (2.79) mmol/L
2-hour plasma glucose excursion at Week 24 (LOCF), Median [4]: 5.05 mmol/L
2-hour plasma glucose excursion change from baseline to Week 24 (LOCF), Mean (SD) [4]: −0.61 (3.03) mmol/L
2-hour plasma glucose excursion change from baseline to Week 24 (LOCF), Median [4]: -0.75 mmol/L
2-hour plasma glucose excursion change from baseline to Week 24 (LOCF), LS Mean (SE) [4]: −0.67 (0.269) mmol/L
2-hour plasma glucose excursion change from baseline to Week 24 (LOCF), LS Mean (SE) ([4]; listed as insulin glargine): -0.67 mmol/L
Documented symptomatic hypoglycemia (plasma glucose <54 mg/dL [3.0 mmol/L]): Number of events [5]: 10
Documented symptomatic hypoglycemia (plasma glucose <54 mg/dL [3.0 mmol/L]): Number of events per 100 patient years [5]: 13.2 events per 100 patient years
Documented symptomatic hypoglycemia (plasma glucose <54 mg/dL [3.0 mmol/L]): Number of patients with events [5]: 4 (2.5%) n (%)
Documented symptomatic hypoglycemia (plasma glucose <60 mg/dL [3.3 mmol/L]): Number of events [5]: 18
Documented symptomatic hypoglycemia (plasma glucose <60 mg/dL [3.3 mmol/L]): Number of events per 100 patient years [5]: 23.8 events per 100 patient years
Documented symptomatic hypoglycemia (plasma glucose <60 mg/dL [3.3 mmol/L]): Number of patients with events [5]: 9 (5.6%) n (%)
Documented symptomatic hypoglycemia (plasma glucose <=70 mg/dL [3.9 mmol/L]): Number of events [5]: 79
Documented symptomatic hypoglycemia (plasma glucose <=70 mg/dL [3.9 mmol/L]): Number of events per 100 patient years [5]: 104.5 events per 100 patient years
Documented symptomatic hypoglycemia (plasma glucose <=70 mg/dL [3.9 mmol/L]): Number of patients with events [5]: 37 (22.8%) n (%)
Probable symptomatic hypoglycemia: Number of events [5]: 5
Probable symptomatic hypoglycemia: Number of events per 100 patient years [5]: 6.6 events per 100 patient years
Probable symptomatic hypoglycemia: Number of patients with events [5]: 5 (3.1%) n (%)
Severe symptomatic hypoglycemia: Number of events [5]: 0
Severe symptomatic hypoglycemia: Number of events per 100 patient years [5]: 0.0 events per 100 patient years
Severe symptomatic hypoglycemia: Number of patients with events [5]: 0 n (%)
Symptomatic hypoglycemia: Number of events per 100 patient years [5]: 111.1 events per 100 patient years
Symptomatic hypoglycemia: Number of events ([5]; TEAE period): 84
Symptomatic hypoglycemia: Number of patients with events ([5]; documented, probable and severe, TEAE period): 40 (24.7%) n (%)

Reference: patent publication US11026999B2, “Insulin glargine/lixisenatide fixed ratio formulation” (SANOFI-AVENTIS DEUTSCHLAND GMBH, priority 2013, dated 2021)
